# Data as given in patent publication US10647959B2, “Cell-friendly inverse opal hydrogels for cell encapsulation, drug and protein delivery, and functional nanoparticle encapsulation” (President and Fellows of Harvard College, priority 2011, dated 2020).
# Test system: Mouse mesenchymal stem cells (MSCs)
# Details: 50 mM EDTA solution, up to 3 h incubation, fluorescent images (FIG. 5a)
# Protocol: Subsequently, the viability of cells was measured with a live/dead cell assay by using calcein AM and ethidium homodimer-1.
smiles,measurement,value
"O=C(O)CN(CCN(CC(=O)O)CC(=O)O)CC(=O)O [EDTA, ethylenediaminetetraacetic acid]",toxicity of the EDTA solution to the cells,no significant toxicity
